pEC50, pIC50: −log10 of the molar value.
How the values were obtained:
[1] = target: PI3-kinase p110-delta/p85-alpha (Homo sapiens, UniProt O00329); assay: Inhibition of N-terminal His6-tagged recombinant full-length human p110delta/untagged recombinant full length p85alpha expressed in baculovirus infected Sf21 cells using phosphatidylinositol as substrate in presence of gamma-32P-ATP after 5 mins by thin layer chromatographic method
[2] = Antiproliferative activity against Balb/c mouse splenic B cells preincubated for 30 mins followed by LPS or F(ab')2 donkey anti-mouse IgM and recombinant mouse IL4 stimulation measured after 72 hrs by Alamar Blue reduction assay; assay type: functional, cell-based
PI3K p110 beta/p85 alpha = PI3K p110 beta/p85 alpha (Homo sapiens, UniProt P42338); assay: Inhibition of N-terminal His6-tagged recombinant full-length human p110beta/untagged recombinant full length p85alpha expressed in baculovirus infected Sf21 cells using phosphatidylinositol as substrate in presence of gamma-32P-ATP after 5 mins by thin layer chromatographic method
[3] = target: PI3-kinase p110-alpha/p85-alpha (Homo sapiens, UniProt P42336); assay: Inhibition of N-terminal His6-tagged recombinant full-length human p110alpha/untagged recombinant full length human p85alpha expressed in baculovirus infected Sf21 cells using phosphatidylinositol as substrate in presence of gamma-32P-ATP after 5 mins by thin layer chromatographic method
Chain of PI3-kinase p110-alpha/p85-alpha (P27986 whole entry): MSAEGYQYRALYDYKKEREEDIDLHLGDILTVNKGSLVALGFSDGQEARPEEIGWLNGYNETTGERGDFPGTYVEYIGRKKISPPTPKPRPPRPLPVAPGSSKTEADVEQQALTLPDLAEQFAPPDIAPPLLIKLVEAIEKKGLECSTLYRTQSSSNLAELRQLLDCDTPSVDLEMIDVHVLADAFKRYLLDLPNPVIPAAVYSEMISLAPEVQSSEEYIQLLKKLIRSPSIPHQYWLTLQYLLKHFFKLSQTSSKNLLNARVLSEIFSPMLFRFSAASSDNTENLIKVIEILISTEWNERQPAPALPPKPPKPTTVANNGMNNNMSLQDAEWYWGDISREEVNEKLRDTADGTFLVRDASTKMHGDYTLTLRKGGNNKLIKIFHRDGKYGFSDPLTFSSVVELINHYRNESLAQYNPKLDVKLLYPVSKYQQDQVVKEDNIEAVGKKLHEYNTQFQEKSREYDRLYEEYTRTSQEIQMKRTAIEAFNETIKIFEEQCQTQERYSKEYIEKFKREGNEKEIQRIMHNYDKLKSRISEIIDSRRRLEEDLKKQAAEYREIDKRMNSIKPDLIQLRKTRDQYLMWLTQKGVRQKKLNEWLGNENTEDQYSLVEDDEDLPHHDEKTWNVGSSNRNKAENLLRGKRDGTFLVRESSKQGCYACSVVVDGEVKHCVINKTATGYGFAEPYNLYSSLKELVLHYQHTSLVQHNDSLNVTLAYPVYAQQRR
Chain of PI3-kinase p110-alpha/p85-alpha (P42336 whole entry): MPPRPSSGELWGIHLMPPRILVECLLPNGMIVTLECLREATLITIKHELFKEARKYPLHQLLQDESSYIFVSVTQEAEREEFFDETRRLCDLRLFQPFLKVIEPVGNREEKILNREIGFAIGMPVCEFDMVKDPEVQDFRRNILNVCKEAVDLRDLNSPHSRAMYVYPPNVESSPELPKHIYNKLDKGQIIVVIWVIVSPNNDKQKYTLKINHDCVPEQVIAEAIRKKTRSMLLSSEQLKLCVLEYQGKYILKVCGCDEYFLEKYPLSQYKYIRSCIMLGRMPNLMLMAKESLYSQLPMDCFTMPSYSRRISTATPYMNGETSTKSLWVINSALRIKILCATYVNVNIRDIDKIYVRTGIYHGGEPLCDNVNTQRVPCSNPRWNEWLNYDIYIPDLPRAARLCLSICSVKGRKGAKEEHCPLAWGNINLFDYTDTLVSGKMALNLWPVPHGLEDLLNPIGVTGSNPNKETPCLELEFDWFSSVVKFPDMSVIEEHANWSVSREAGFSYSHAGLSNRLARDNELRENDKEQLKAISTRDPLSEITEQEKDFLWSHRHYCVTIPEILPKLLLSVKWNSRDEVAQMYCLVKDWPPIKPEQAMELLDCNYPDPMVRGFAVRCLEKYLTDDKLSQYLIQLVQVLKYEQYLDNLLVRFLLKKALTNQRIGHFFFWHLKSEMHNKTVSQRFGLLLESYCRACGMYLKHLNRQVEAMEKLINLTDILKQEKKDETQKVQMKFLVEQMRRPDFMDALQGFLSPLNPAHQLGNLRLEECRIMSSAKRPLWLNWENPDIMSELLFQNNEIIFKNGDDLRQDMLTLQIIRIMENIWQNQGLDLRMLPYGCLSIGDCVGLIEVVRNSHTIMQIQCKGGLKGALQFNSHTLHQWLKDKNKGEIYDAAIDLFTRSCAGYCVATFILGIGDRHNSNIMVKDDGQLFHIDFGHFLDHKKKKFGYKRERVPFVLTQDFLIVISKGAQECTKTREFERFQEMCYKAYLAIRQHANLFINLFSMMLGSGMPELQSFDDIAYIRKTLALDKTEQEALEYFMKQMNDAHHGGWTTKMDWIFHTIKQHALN

Chain of PI3-kinase p110-delta/p85-alpha (P27986 whole entry): as the sequence (P27986 whole entry) above
Chain of PI3-kinase p110-delta/p85-alpha (O00329 whole entry): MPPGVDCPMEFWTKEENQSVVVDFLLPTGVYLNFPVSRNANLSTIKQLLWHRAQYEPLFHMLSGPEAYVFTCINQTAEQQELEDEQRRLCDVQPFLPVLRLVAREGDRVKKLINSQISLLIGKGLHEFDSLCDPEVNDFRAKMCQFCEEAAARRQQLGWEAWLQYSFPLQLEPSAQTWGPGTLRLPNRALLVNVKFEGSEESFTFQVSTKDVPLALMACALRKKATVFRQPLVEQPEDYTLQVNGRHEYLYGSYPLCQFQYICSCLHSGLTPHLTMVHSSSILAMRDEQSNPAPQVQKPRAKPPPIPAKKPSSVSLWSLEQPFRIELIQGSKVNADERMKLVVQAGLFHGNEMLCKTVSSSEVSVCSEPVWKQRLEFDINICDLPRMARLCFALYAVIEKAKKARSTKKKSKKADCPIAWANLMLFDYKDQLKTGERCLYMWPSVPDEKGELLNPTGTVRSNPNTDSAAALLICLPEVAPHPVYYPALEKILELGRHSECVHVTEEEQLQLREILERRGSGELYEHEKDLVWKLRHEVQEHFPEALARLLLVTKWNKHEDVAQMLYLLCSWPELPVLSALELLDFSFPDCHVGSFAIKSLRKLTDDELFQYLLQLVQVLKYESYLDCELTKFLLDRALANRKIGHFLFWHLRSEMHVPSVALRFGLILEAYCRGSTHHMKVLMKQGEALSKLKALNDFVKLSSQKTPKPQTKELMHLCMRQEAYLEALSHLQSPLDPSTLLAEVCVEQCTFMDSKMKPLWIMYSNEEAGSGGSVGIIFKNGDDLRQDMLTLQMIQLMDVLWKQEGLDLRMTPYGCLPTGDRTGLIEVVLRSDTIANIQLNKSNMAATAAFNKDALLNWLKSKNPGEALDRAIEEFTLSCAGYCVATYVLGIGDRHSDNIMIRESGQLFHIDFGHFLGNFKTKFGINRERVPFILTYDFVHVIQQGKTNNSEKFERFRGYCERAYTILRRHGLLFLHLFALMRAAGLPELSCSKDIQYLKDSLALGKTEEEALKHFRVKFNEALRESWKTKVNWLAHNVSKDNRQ
Chain of PI3K p110 beta/p85 alpha (P27986 whole entry): as the sequence (P27986 whole entry) above
Chain of PI3K p110 beta/p85 alpha (P42338 whole entry): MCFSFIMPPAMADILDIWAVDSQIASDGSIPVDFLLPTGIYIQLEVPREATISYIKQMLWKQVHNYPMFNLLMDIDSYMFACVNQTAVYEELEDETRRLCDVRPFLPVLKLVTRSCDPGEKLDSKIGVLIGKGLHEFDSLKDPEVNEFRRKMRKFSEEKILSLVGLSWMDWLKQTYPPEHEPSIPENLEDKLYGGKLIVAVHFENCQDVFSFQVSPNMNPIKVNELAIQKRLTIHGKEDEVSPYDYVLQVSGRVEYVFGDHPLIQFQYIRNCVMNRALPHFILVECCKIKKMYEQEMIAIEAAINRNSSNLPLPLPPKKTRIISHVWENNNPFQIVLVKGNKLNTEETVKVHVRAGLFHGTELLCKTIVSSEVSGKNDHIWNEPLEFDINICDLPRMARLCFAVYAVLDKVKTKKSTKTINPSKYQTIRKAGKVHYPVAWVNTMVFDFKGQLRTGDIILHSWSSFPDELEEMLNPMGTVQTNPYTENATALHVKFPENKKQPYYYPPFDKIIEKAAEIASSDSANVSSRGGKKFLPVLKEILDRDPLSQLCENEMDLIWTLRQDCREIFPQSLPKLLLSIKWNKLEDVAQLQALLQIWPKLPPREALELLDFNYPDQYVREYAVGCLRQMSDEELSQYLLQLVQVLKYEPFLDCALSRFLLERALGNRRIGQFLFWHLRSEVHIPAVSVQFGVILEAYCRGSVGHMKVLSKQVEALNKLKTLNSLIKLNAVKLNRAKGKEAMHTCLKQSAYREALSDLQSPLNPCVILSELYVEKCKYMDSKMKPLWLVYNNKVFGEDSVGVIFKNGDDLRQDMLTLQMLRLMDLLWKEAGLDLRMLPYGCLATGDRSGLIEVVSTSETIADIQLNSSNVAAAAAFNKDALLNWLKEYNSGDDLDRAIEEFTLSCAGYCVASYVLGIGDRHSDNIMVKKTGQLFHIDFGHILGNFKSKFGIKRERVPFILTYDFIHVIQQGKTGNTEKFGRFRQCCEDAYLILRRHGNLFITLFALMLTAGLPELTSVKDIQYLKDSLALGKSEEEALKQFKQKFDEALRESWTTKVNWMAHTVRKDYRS

| pIC50 [1] | pIC50 (PI3K p110 beta/p85 alpha) | pIC50 [3] | SMILES | pEC50 [2] |
| --- | --- | --- | --- | --- |
| > 6.00 | – | – | Nc1ncnc2c1c(-c1cccc(O)c1)nn2Cc1cc2cccc(F)c2c(=O)n1-c1ccccc1F | – |
| – | – | – | Cc1ccccc1-n1c(Cn2nc(C(N)=O)c3c(N)ncnc32)cc2cccc(C)c2c1=O | > 7.00 |
| > 7.00 | – | – | Cc1cccc2cc([C@H](C)Nc3nc(N)ncc3F)n(-c3ccccc3)c(=O)c12 | – |
| > 7.00 | – | – | CC(C)n1c(Cn2nc(-c3cccc(O)c3)c3c(N)ncnc32)cc2ccccc2c1=O | > 6.00 |
| > 7.00 | – | – | Cc1cccc2cc(C(C)Nc3ncnc4[nH]cnc34)n(CCN3CCCC3)c(=O)c12 (centres undefined) | > 7.00 |
| > 7.00 | – | – | Cc1cccc2cc(Cn3nc(-c4ccc(Cl)c(O)c4)c4c(N)ncnc43)n(C(C)C)c(=O)c12 | > 7.00 |
| > 7.00 | – | – | Cc1cccc2cc(Cn3nc(C(F)F)c4c(N)ncnc43)n(-c3ccccc3)c(=O)c12 | > 7.00 |
| – | – | – | CC(Nc1ncnc2[nH]cnc12)c1cc2cccc(Cl)c2c(=O)n1-c1ccccc1 (centres undefined) | > 7.00 |
| > 7.00 | > 5.00 | – | CC(=O)Nc1nc2ccc(-c3nn(Cc4cc5cccc(C)c5c(=O)n4-c4cccc(F)c4)c4ncnc(N)c34)cc2s1 | > 7.00 |
| > 7.00 | – | < 5.00 | Cc1cccnc1-n1c(Cn2nc(-c3cc(O)cc(F)c3)c3c(N)ncnc32)cc2cccc(C)c2c1=O | > 7.00 |
| > 7.00 | – | – | Cc1cccc2cc(C(C)Nc3ncnc4[nH]cnc34)n(CCN3CCOCC3)c(=O)c12 (centres undefined) | > 7.00 |
| > 7.00 | – | – | Cc1cccc2cc(Cn3nc(-c4cn[nH]c4)c4c(N)ncnc43)n(-c3ccccc3)c(=O)c12 | > 7.00 |
| > 7.00 | – | – | Cc1cccc2cc(Cn3nc(-c4cc(O)cc(F)c4)c4c(N)ncnc43)n(C3CCOCC3)c(=O)c12 | > 7.00 |
| > 7.00 | – | – | Cc1cccc2cc([C@H](C)Nc3ncnc4[nH]nc(Cl)c34)n(C3CC3)c(=O)c12 | – |
| > 7.00 | – | – | Cc1cccc2cc(C(C)Nc3ncnc4[nH]cnc34)n(C(C)C)c(=O)c12 (centres undefined) | > 7.00 |
| > 7.00 | – | – | Cc1ccccc1-n1c(Cn2nc(-c3cc(O)cc(F)c3)c3c(N)ncnc32)cc2ccccc2c1=O | > 7.00 |
| – | – | – | Cc1cccc2cc([C@H](C)Nc3nc(Cl)ncc3Cl)n(-c3ccccc3)c(=O)c12 | > 7.00 |
| > 7.00 | – | – | Cc1ccccc1-n1c(Cn2nc(CC#N)c3c(N)ncnc32)cc2cccc(C)c2c1=O | > 6.00 |
| > 7.00 | > 5.00 | – | CCc1ccccc1-n1c(Cn2nc(I)c3c(N)ncnc32)cc2cccc(C)c2c1=O | > 6.00 |
| > 7.00 | – | – | C=C(C)c1nn(Cc2cc3cccc(C)c3c(=O)n2-c2ccccc2)c2ncnc(N)c12 | – |
| – | – | – | Nc1ncnc2c1c(I)nn2Cc1cc2cccc(I)c2c(=O)n1C1CCCC1 | > 5.00 |
| > 7.00 | – | < 5.00 | Cc1ccccc1-n1c(Cn2nc(-c3ccc(O)c(F)c3)c3c(N)ncnc32)cc2cccc(C)c2c1=O | > 6.00 |
| > 7.00 | – | – | Nc1ncnc2c1c(I)nn2Cc1cc2cccc(Cl)c2c(=O)n1C1CC1 | > 7.00 |
| > 7.00 | – | – | CC(C)n1c(Cn2nc(-c3cccc(O)c3)c3c(N)ncnc32)cc2cccc(Cl)c2c1=O | > 7.00 |
| > 5.00 | – | – | Cc1ccccc1-n1c(Cn2nc(-c3ccc(CN)cc3)c3c(N)ncnc32)cc2cccc(C)c2c1=O | – |

| pIC50 [1] | pIC50 (PI3K p110 beta/p85 alpha) | pIC50 [3] | SMILES | pEC50 [2] |
| --- | --- | --- | --- | --- |
| > 7.00 | – | – | CC(C)n1c(Cn2nc(-c3cc(O)cc(F)c3)c3c(N)ncnc32)cc2ccccc2c1=O | > 7.00 |
| > 7.00 | – | – | CCc1nn(Cc2cc3cccc(C)c3c(=O)n2-c2ccccc2C)c2ncnc(N)c12 | > 6.00 |
| > 5.00 | – | – | Nc1ncnc2c1c(I)nn2Cc1cc2cccc(F)c2c(=O)n1-c1ccccc1F | – |
| > 7.00 | – | – | CCC(Nc1ncnc2[nH]cnc12)c1cc2ccccc2c(=O)n1-c1ccccc1 (centres undefined) | > 7.00 |
| – | – | – | COc1ccc(-c2nn(Cc3cc4cccc(C)c4c(=O)n3-c3ccccc3F)c3ncnc(N)c23)cc1 | > 6.00 |
| > 7.00 | – | – | Cc1cccc2cc([C@H](C)Nc3ncnc4ccccc34)n(-c3ccccc3)c(=O)c12 | – |
| – | – | – | Cc1cccc2cc([C@@H](C)Nc3ncnc4[nH]cnc34)n(-c3ccccc3)c(=O)c12 | > 6.00 |
| – | – | – | CC(C)n1c(Cn2nc(-c3cccc(O)c3)c3c(N)ncnc32)cc2cccc(F)c2c1=O | > 6.00 |
| > 7.00 | – | – | CC(C)n1c(Cn2nc(-c3cc(O)cc(F)c3)c3c(N)ncnc32)cc2cccc(F)c2c1=O | > 7.00 |
| > 7.00 | – | – | Cc1cccc2cc(Cn3nc(-c4cccc(O)c4)c4c(N)ncnc43)n(C)c(=O)c12 | > 6.00 |
| > 5.00 | < 5.00 | – | Cc1cccc2cc(Cn3nc(-c4cccc(Cl)c4)c4c(N)ncnc43)n(-c3ccccc3F)c(=O)c12 | < 5.00 |
| > 7.00 | – | – | CCC(Nc1ncnc2[nH]cnc12)c1cc2cccc(C)c2c(=O)n1C(C)C (centres undefined) | > 7.00 |
| – | – | – | CCC(Nc1ncnc2[nH]cnc12)c1cc2cccc(C)c2c(=O)n1C1CCN(C)CC1 (centres undefined) | > 7.00 |
| > 7.00 | – | – | Cc1cccc2cc(Cn3nc(-c4cc(O)cc(F)c4)c4c(N)ncnc43)n(C)c(=O)c12 | > 7.00 |
| > 7.00 | – | – | CC(Nc1ncnc2[nH]cnc12)c1cc2ccccc2c(=O)n1-c1ccccc1 (centres undefined) | > 7.00 |
| > 7.00 | – | – | C=Cc1nn(Cc2cc3cccc(C)c3c(=O)n2-c2ccccc2)c2ncnc(N)c12 | > 7.00 |
| > 7.00 | – | – | CC(C)n1c(Cn2nc(-c3cc(O)cc(F)c3)c3c(N)ncnc32)cc2cccc(Cl)c2c1=O | > 7.00 |
| – | – | – | C[C@H](Nc1ncnc2nc[nH]c12)c1cc2cccc(Cl)c2c(=O)n1-c1ccccc1 [DUVELISIB] | > 7.00 |
| – | > 7.00 | – | Cc1cccc2cc([C@H](C)Nc3ncnc4[nH]cnc34)n(-c3ccc(F)cc3)c(=O)c12 | – |
| > 7.00 | > 7.00 | – | Cc1cccc2cc([C@H](C)Nc3nc(Cl)nc4[nH]cnc34)n(C3CC3)c(=O)c12 | – |
| > 7.00 | – | – | Cc1cccc2cc(C(C)Nc3ncnc4[nH]cnc34)n(-c3cccc(F)c3)c(=O)c12 (centres undefined) | > 7.00 |
| > 7.00 | – | – | CCC(Nc1ncnc2[nH]cnc12)c1cc2cccc(C)c2c(=O)n1C1CCC1 (centres undefined) | > 6.00 |
| > 7.00 | > 7.00 | – | Cc1cccc2cc([C@H](C)Nc3nc(F)nc4[nH]cnc34)n(C3CC3)c(=O)c12 | – |
| > 7.00 | – | – | Cc1cccc2cc(C(C)Nc3ncnc4[nH]cnc34)n(-c3c(F)cccc3F)c(=O)c12 (centres undefined) | > 7.00 |
| – | – | – | Cc1cccc2cc(C(C)Nc3ncnc4[nH]cnc34)n(-c3ccccc3)c(=O)c12 (centres undefined) | > 7.00 |

| pIC50 [1] | pIC50 (PI3K p110 beta/p85 alpha) | pIC50 [3] | SMILES | pEC50 [2] |
| --- | --- | --- | --- | --- |
| > 7.00 | > 5.00 | – | Cc1cccc2cc(Cn3nc(I)c4c(N)ncnc43)n(-c3ccccc3C(C)C)c(=O)c12 | > 7.00 |
| > 5.00 | – | – | CNC(=O)c1cccc(-c2nn(Cc3cc4cccc(C)c4c(=O)n3-c3ccccc3C)c3ncnc(N)c23)c1 | – |
| – | – | – | Cc1ccccc1-n1c(Cn2nc(C(=O)NO)c3c(N)ncnc32)cc2cccc(C)c2c1=O | > 7.00 |
| > 7.00 | – | – | Nc1ncnc2c1c(-c1cccc(O)c1)nn2Cc1cc2cccc(Cl)c2c(=O)n1C1CC1 | > 7.00 |
| > 7.00 | – | – | Cc1cccc2cc(Cn3nc(-c4cn[nH]c4)c4c(N)ncnc43)n(-c3ccccc3C(F)(F)F)c(=O)c12 | > 7.00 |
| – | – | – | Nc1ncnc2c1c(-c1ccc(Cl)c(O)c1)nn2Cc1cc2cccc(I)c2c(=O)n1C1CCCC1 | > 5.00 |
| > 7.00 | – | – | Cc1cccc(C)c1-n1c(CNc2ncnc3[nH]cnc23)cc2cccc(C)c2c1=O | – |
| – | > 7.00 | – | Cc1cccc2cc(C(C)Nc3nc(N)nc4[nH]cnc34)n(-c3ccccc3)c(=O)c12 (centres undefined) | – |
| > 7.00 | – | – | Cc1ccccc1-n1c(Cn2nc(-c3cccc(O)c3)c3c(N)nccc32)cc2cccc(C)c2c1=O | > 6.00 |
| > 7.00 | > 5.00 | – | Cc1cccc2cc(C(C)Nc3ncnc4[nH]cnc34)n(-c3ccccc3F)c(=O)c12 (centres undefined) | > 7.00 |
| – | – | – | Cc1cccc2cc([C@@H](C)Nc3ncnc4[nH]cnc34)n(C3CCC3)c(=O)c12 | > 5.00 |
| – | – | < 5.00 | Cc1cccnc1-n1c(Cn2nc(I)c3c(N)ncnc32)cc2cccc(C)c2c1=O | > 6.00 |
| > 7.00 | – | – | CCc1nn(Cc2cc3cccc(C)c3c(=O)n2-c2ccccc2)c2ncnc(N)c12 | > 7.00 |
| > 7.00 | – | – | CCC(Nc1ncnc2[nH]cnc12)c1cc2cccc(C)c2c(=O)n1-c1cc(F)cc(F)c1 (centres undefined) | > 7.00 |
| – | – | – | Cc1cccc2cc([C@@H](C)Nc3ncnc4[nH]cnc34)n(C3CC3)c(=O)c12 | < 5.00 |
| > 7.00 | – | – | Nc1ncnc2c1c(-c1cc(O)cc(F)c1)nn2Cc1cc2cccc(F)c2c(=O)n1-c1ccccc1F | > 7.00 |
| > 7.00 | – | – | Cc1cccc2cc(C(C)Nc3ncnc4[nH]cnc34)n(C3CCN(C)CC3)c(=O)c12 (centres undefined) | > 7.00 |
| > 7.00 | – | – | CCC(Nc1ncnc2[nH]cnc12)c1cc2cccc(C)c2c(=O)n1-c1ccccc1C (centres undefined) | > 7.00 |
| – | – | – | Cc1cccc2cc(C(C)Nc3ncnc4[nH]cnc34)n(C3CC3)c(=O)c12 (centres undefined) | > 7.00 |
| > 7.00 | – | – | Cc1cccc2cc(C(C)Nc3ncnc4[nH]cnc34)n(C3CCOCC3)c(=O)c12 (centres undefined) | > 7.00 |
| > 7.00 | – | – | Cc1cccc2cc(C(C)Nc3ncnc4[nH]cnc34)n(C3CCC3)c(=O)c12 (centres undefined) | > 7.00 |
| > 5.00 | – | – | CC(C)n1c(Cn2nc(I)c3c(N)ncnc32)cc2cccc(F)c2c1=O | – |
| > 7.00 | – | – | CCn1c(Cn2nc(-c3cccc(O)c3)c3c(N)ncnc32)cc2cccc(C)c2c1=O | > 7.00 |
| > 7.00 | – | – | Cc1cccc2cc([C@H](C)Nc3nc(N)ncc3Cl)n(C3CC3)c(=O)c12 | – |
| > 7.00 | – | – | Cc1cccc2cc(C(C)Nc3ncnc4[nH]cnc34)n(-c3cc(F)cc(F)c3)c(=O)c12 (centres undefined) | > 7.00 |

— ChEMBL document CHEMBL3879901, “Substituted isoquinolin-1(2H)-ones, and methods of use thereof” (2012)
